Assay results as given in ChEMBL document CHEMBL6114999, “Natural pyrrolo[1,2-a]quinazolinone derivatives: Design, synthesis, characterization, and bio-evaluation as novel antiviral agents” (Eur J Med Chem, 2025).
Calls of active or inactive are those of the source. No cut-off for these calls is given here.

Key:
Coxsackievirus B3 [1] = experiment: Antiviral activity against CVB3 infected in HEp-2 cells assessed as protection from virus-induced cytopathogenicity incubated for 48 hrs by MTT assay; format: functional, organism-based; settings: Enterovirus B, HEp-2, 48 h
Enterovirus [2] = experiment: Antiviral activity against EV71 infected in human RD cells assessed as inhibition of virus-induced cell death at 200 uM incubated for 48 hrs by MTT assay; format: functional, organism-based; settings: 71
Coxsackievirus B3 [3] = experiment: Antiviral activity against CVB3 infected in HEp-2 cells assessed as inhibition of virus-induced cell death at 200 uM incubated for 48 hrs by MTT assay; format: functional, organism-based
[4] = Cytotoxicity against human HEp-2 cells incubated for 48 hrs by MTT assay; format: toxicity, cell-based
[5] = Selectivity index, ratio of CC50 for cytotoxicity against HEp-2 cells to EC50 for antiviral activity against CVB3 infected in HEp-2 cells; format: toxicity, cell-based; settings: human, read-out: Ratio CC50/EC50
[6] = Cytotoxicity against human RD cells incubated for 48 hrs by MTT assay; format: toxicity, cell-based
Enterovirus [7] = experiment: Antiviral activity against EV71 infected in human RD cells assessed as protection from virus-induced cytopathogenicity by measuring reduction in progeny virus titer incubated for 48 hrs by MTT assay; format: functional, 71
Enterovirus [8] = experiment: Antiviral activity against EV71 infected in human RD cells assessed as inhibition of virus-induced cell death at 100 uM incubated for 48 hrs by MTT assay relative to control; format: functional, 71; settings: for inhibition at 100 µM: Enterovirus, 71, RD
Enterovirus [9] = experiment: Antiviral activity against EV71 infected in human RD cells assessed as inhibition of virus-induced cell death at 25 uM incubated for 48 hrs by MTT assay relative to control; format: functional; settings: Enterovirus, 71, RD
Coxsackievirus B3 [10] = experiment: Antiviral activity against CVB3 infected in HEp-2 cells assessed as inhibition of virus-induced cell death at 100 uM incubated for 48 hrs by MTT assay relative to control; format: functional; settings: for inhibition at 100 µM: Enterovirus B, HEp-2, 48 h
Coxsackievirus B3 [11] = experiment: Antiviral activity against CVB3 infected in HEp-2 cells assessed as inhibition of virus-induced cell death at 25 uM incubated for 48 hrs by MTT assay relative to control; format: functional; settings: Enterovirus B
Coxsackievirus B3 [12] = experiment: Antiviral activity against CVB3 infected in HEp-2 cells assessed as inhibition of virus-induced cell death at 50 uM incubated for 48 hrs by MTT assay relative to control; format: functional; settings: Enterovirus B
Enterovirus [13] = experiment: Antiviral activity against EV71 infected in human RD cells assessed as protection from virus-induced cytopathogenicity incubated for 48 hrs by MTT assay; format: functional, organism-based; settings: Enterovirus, 71, RD
Enterovirus [14] = experiment: Antiviral activity against EV71 infected in human RD cells assessed as inhibition of virus-induced cell death at 50 uM incubated for 48 hrs by MTT assay relative to control; format: functional; settings: Enterovirus, 71, RD
Coxsackievirus B3 [15] = experiment: Antiviral activity against CVB3 infected in HEp-2 cells assessed as protection from virus-induced cytopathogenicity by measuring reduction in progeny virus titer incubated for 48 hrs by MTT assay; format: functional
[16] = Selectivity index, ratio of CC50 for cytotoxicity against human RD cells to EC50 for antiviral activity against EV71 infected in human RD cells; format: toxicity, cell-based; settings: read-out: Ratio CC50/EC50
HEp-2 = experiment: Inhibition of morphological changes in HEp-2 cells infected with CVB3 assessed as reduction in cytopathic effect at 50 to 100 uM measured after 48 hrs by Reed-Muench method; format: functional, cell-based; settings: Coxsackievirus B3, dose 50-100 µM
Coxsackievirus B3 [17] = experiment: Antiviral activity against CVB3 infected in HEp-2 cells assessed as inhibition of virus-induced cell death at 25 to 100 uM incubated for 48 hrs by MTT assay; format: functional, organism-based; settings: dose 25-100 µM
Enterovirus [18] = experiment: Inhibition of EGFP-fused EV71 2Apro transfected in host cells co-expressing FLuc assessed as reduction in firefly luciferase activity incubated for 24 to 36 hrs by chemiluminescence analysis; format: cell-based; settings: 71, time 24-36 hrs
Enterovirus [19] = experiment: Antiviral activity against EV71 infected in human RD cells assessed as increase in cell viability at 3.125 to 100 uM preincubated with compound followed by viral infection measured after 48 hrs by MTT assay; format: functional, organism-based; settings: 71, dose 3.125-100 µM
Enterovirus [20] = experiment: Antiviral activity against EV71 infected in human RD cells assessed as inhibition of virus-induced cell death at 25 to 100 uM incubated for 48 hrs by MTT assay; format: functional, organism-based; settings: 71, dose 25-100 µM
Enterovirus [21] = experiment: Antiviral activity against EV71 infected in human RD cells assessed as viral infection in cell at 100 uM incubated for 46.5 hrs by fluorescence microscopy (reference value: 80.67 %); format: functional, 71
RD = experiment: Inhibition of morphological changes in human RD cells infected with EV71 assessed as reduction in cytopathic effect at 50 to 100 uM measured after 48 hrs by Reed-Muench method; format: functional, cell-based; settings: Enterovirus, 71, dose 50-100 µM
Enterovirus [22] = experiment: Antiviral activity against EV71 infected in human RD cells assessed as viral infection in cell at 50 uM incubated for 46.5 hrs by fluorescence microscopy (reference value: 80.67 %); format: functional, 71
Enterovirus [23] = experiment: Antiviral activity against EV71 infected in human RD cells assessed as cell viability at 100 uM pre-infected with virus followed by compound treatment measured after 48 hrs post-infection by MTT assay relative to control; format: functional, 71
Enterovirus [24] = experiment: Antiviral activity against EV71 infected in human RD cells assessed as inhibition of viral RNA synthesis at 100 uM incubated for 32 hrs by qRT-PCR analysis; format: functional, organism-based; settings: 71
Enterovirus [25] = experiment: Virucidal activity against EV71 infected in human RD cells at 100 uM pretreated compound with virus followed by inoculation of mixture into host cells measured after 2 days by Reed-Muench method; format: functional, organism-based; settings: 71, time 2.0 day
Enterovirus [26] = experiment: Antiviral activity against EV71 infected in human RD cells assessed as log reduction in viral replication at 100 uM incubated for 4 to 32 hrs by […] method; format: functional, 71; settings: time 4-32 hrs
Enterovirus [27] = experiment: Inhibition of EV71 3Dpol assessed as decrease in RNA chain extension by polyacrylamide gel electrophoresis; settings: 71
Enterovirus [28] = experiment: Antiviral activity against EV71 infected in human RD cells assessed as increase in cell viability at 3.125 to 100 uM incubated with compound and virus measured after 48 hrs by MTT assay; format: functional, organism-based; settings: 71, dose 3.125-100 µM
Enterovirus [29] = experiment: Antiviral activity against EV71 infected in human RD cells assessed as reduction in viral protein translation at 100 uM incubated for 32 hrs by immunofluorescence analysis; format: functional, organism-based; settings: 71

O=C1NC2(C(=O)O)CCC(=O)N2c2ccccc21 (stereo not given)
EC50 (Coxsackievirus B3 [1]): 143 µM
inhibition (Enterovirus [2]): inactive
inhibition (Coxsackievirus B3 [3]): Active; Compared To Ribavirin The Antiviral Effect Is Comparable Or Slightly Inferior
CC50 at 48 h [4]: 296 µM
selectivity ratio [5]: 2.1
CC50 at 48 h [6]: 323 µM

CN1C(=O)c2ccccc2N2C(=O)CCC12C(=O)O (stereo not given)
EC50 (Coxsackievirus B3 [1]): 152 µM
inhibition (Enterovirus [2]): inactive
inhibition (Coxsackievirus B3 [3]): Active; Compared To Ribavirin The Antiviral Effect Is Comparable Or Slightly Inferior
CC50 at 48 h [4]: 276 µM
selectivity ratio [5]: 1.8
CC50 at 48 h [6]: 327 µM

O=C1NC2(C(=O)O)CCC(=O)N2c2ccc(Cl)cc21 (stereo not given)
EC50 (Coxsackievirus B3 [1]): 142 µM
inhibition (Enterovirus [2]): inactive
inhibition (Coxsackievirus B3 [3]): Active; Compared To Ribavirin The Antiviral Effect Is Comparable Or Slightly Inferior
CC50 at 48 h [4]: 245 µM
selectivity ratio [5]: 1.7
CC50 at 48 h [6]: 317 µM

NC(=O)c1ncn([C@@H]2O[C@H](CO)[C@@H](O)[C@H]2O)n1 [RIBAVIRIN]
log(activity) (Enterovirus [7]): 2.3
Imax (Enterovirus [8]): 62.33%
inhibition at 100 µM (Enterovirus [8]): 69.7%
inhibition at 25 µM (Enterovirus [9]): 53.8%
EC50 (Coxsackievirus B3 [1]): 24.7 µM
Imax (Coxsackievirus B3 [10]): 71%
inhibition at 100 µM (Coxsackievirus B3 [10]): 71%
inhibition at 25 µM (Coxsackievirus B3 [11]): 47.3%
inhibition at 50 µM (Coxsackievirus B3 [12]): 60.7%
EC50 (Enterovirus [13]): 40.4 µM
inhibition at 50 µM (Enterovirus [14]): 61.1%
CC50 at 48 h [4]: 204 µM
log(activity) (Coxsackievirus B3 [15]): 3.07
selectivity ratio [5]: 8.2
selectivity ratio [16]: 6.6
CC50 at 48 h [6]: 267 µM

CN1C(=O)c2ccccc2N2C(=O)CCC12C(=O)NCCc1c[nH]c2ccccc12 (stereo not given)
log(activity) (Enterovirus [7]): ~2.73
inhibition (HEp-2): Active; Compound Successfully Protected Host Cells From Pathological Changes Or Apoptosis
antiviral activity call (active/inactive) (Coxsackievirus B3 [17]): Active
inhibition at 100 µM (Enterovirus [8]): 62.3%
inhibition (Enterovirus [18]): Active
inhibition at 25 µM (Enterovirus [9]): 33%
EC50 (Coxsackievirus B3 [1]): 82 µM
Activity (Enterovirus [19]): inactive
inhibition (Enterovirus [20]): Active
Activity (Enterovirus [21]): 5.34%
inhibition (RD): Active; Compound Successfully Protected Host Cells From Pathological Changes Or Apoptosis
inhibition at 100 µM (Coxsackievirus B3 [10]): 54.4%
Activity (Enterovirus [22]): 22.66%
Activity (Enterovirus [23]): >80%
inhibition (Enterovirus [24]): Active
inhibition at 25 µM (Coxsackievirus B3 [11]): 24.2%
inhibition at 50 µM (Coxsackievirus B3 [12]): 40.8%
EC50 (Enterovirus [13]): 14.8 µM
Activity (Enterovirus [25]): inactive
inhibition at 50 µM (Enterovirus [14]): 56.7%
CC50 at 48 h [4]: 217 µM
log(activity) (Enterovirus [26]): 3.25
inhibition (Enterovirus [27]): inactive
log(activity) (Coxsackievirus B3 [15]): ~4.03
selectivity ratio [5]: 2.6
Activity (Enterovirus [28]): inactive
Activity (Enterovirus [29]): Active
selectivity ratio [16]: 17.9
CC50 at 48 h [6]: 265 µM

O=C1NC2(C(=O)NCCc3c[nH]c4ccccc34)CCC(=O)N2c2ccccc21 (stereo not given)
antiviral activity call (active/inactive) (Coxsackievirus B3 [17]): Active
inhibition at 100 µM (Enterovirus [8]): 67%
inhibition at 25 µM (Enterovirus [9]): 64.1%
EC50 (Coxsackievirus B3 [1]): 65.8 µM
inhibition (Enterovirus [20]): Active
inhibition at 100 µM (Coxsackievirus B3 [10]): 62.1%
inhibition at 25 µM (Coxsackievirus B3 [11]): 28.9%
inhibition at 50 µM (Coxsackievirus B3 [12]): 44.4%
EC50 (Enterovirus [13]): 18.6 µM
inhibition at 50 µM (Enterovirus [14]): 73.1%
CC50 at 48 h [4]: 185 µM
selectivity ratio [5]: 2.8
selectivity ratio [16]: 11.2
CC50 at 48 h [6]: 208 µM

O=C1NC2(C(=O)NCCc3c[nH]c4ccccc34)CCC(=O)N2c2ccc(Cl)cc21 (stereo not given)
antiviral activity call (active/inactive) (Coxsackievirus B3 [17]): Active
inhibition at 100 µM (Enterovirus [8]): 88.4%
inhibition at 25 µM (Enterovirus [9]): 57.8%
EC50 (Coxsackievirus B3 [1]): 33.5 µM
inhibition (Enterovirus [20]): Active
inhibition at 100 µM (Coxsackievirus B3 [10]): 65.7%
inhibition at 25 µM (Coxsackievirus B3 [11]): 38.5%
inhibition at 50 µM (Coxsackievirus B3 [12]): 77.3%
EC50 (Enterovirus [13]): 16.8 µM
inhibition at 50 µM (Enterovirus [14]): 66.8%
CC50 at 48 h [4]: 180 µM
selectivity ratio [5]: 5.4
selectivity ratio [16]: 8.3
CC50 at 48 h [6]: 140 µM

COC(=O)C(Cc1c[nH]c2ccccc12)NC(=O)C12CCC(=O)N1c1ccccc1C(=O)N2C (stereo not given)
antiviral activity call (active/inactive) (Coxsackievirus B3 [17]): Active
inhibition at 100 µM (Enterovirus [8]): 78%
inhibition at 25 µM (Enterovirus [9]): 55.7%
EC50 (Coxsackievirus B3 [1]): 66.2 µM
inhibition (Enterovirus [20]): Active
inhibition at 100 µM (Coxsackievirus B3 [10]): 63.7%
inhibition at 25 µM (Coxsackievirus B3 [11]): 27.1%
inhibition at 50 µM (Coxsackievirus B3 [12]): 40.3%
EC50 (Enterovirus [13]): 28.7 µM
inhibition at 50 µM (Enterovirus [14]): 65.7%
CC50 at 48 h [4]: 202 µM
selectivity ratio [5]: 3.1
selectivity ratio [16]: 9.8
CC50 at 48 h [6]: 282 µM
